Read-outs that look alike come from different tables or passages of the source.
Assays:
[1] = type: physicochemical
Protocol: All conditions and stock preparation procedures were identical to the conditions applied in the transporter assays (Table 74, Table 75 and Table 76). […] A follow-up assay was carried out at 7 concentrations in order to correct the nominal concentrations for the IC50 calculations (Table 78). Where NSB was observed (>20% loss) the assay concentrations were corrected according to the result of the respective NSB assay.
All conditions and stock preparation procedures were identical to the conditions applied in the transporter assays.
Samples (1.5×C0 or Total) were immediately taken after mixing to determine the total initial concentrations. The assay mixes were pre-incubated for 15 minutes at 37° C. and at 32° C. in case of BCRP and MDR1. After the pre-incubation step the assay mixes were 1.5-times diluted with (pre-warmed) transport buffer reaching the final nominal concentrations of the compounds in the VT assay and then were further incubated at 37° C. or 32° C. for BCRP and MDR1 and sampled in the end of incubation (timc).
The aqueous buffer was mixed, and samples (C0 or Total) were immediately taken for determining the total initial concentrations. The helper plate was pre-warmed for 15 minutes at 37° C. The pre-warmed aliquots of the aqueous buffers with the test articles (50 μL) were transferred from the helper plate into the wells of another 96-well plate (assay plate) and incubated for 30 minutes (pre-incubation) then removed from the wells. Thereafter the same wells of the assay plate were dosed again with other aliquots of the aqueous buffers with the test articles and were further incubated in the assay plate at 37° C. and finally sampled (tinc).

MDR1 = MDR1 (Homo sapiens, UniProt P08183); experiment: Vesicular transport inhibition assay, MDR1 (N-methyl quinidine)
Protocol: Vesicular transport assays were performed with inside-out membrane vesicles prepared from cells overexpressing human ABC (efflux) transporters. The transporters were expressed by SOLVO Biotechnology in mammalian (HEK293) cells. The mammalian cells were stably transfected with the ABC transporter of interest. The assays were conducted according to the actual SOLVO VT assay protocols (PR-ASY-VT-General Protocol for Vesicular Transport Inhibition Assays).
The membrane vesicle suspension was mixed with the ice-cold transport buffer, then the probe substrate solution was added. […] (for BCRP and MDR1). […] Reactions were quenched by the addition of 200 μL of ice-cold washing buffer and immediate filtration via glass fiber filters mounted to a 96-well plate (filter plate). The filters were washed (5×200 μL of ice-cold washing buffer), dried and the amount of substrate inside the filtered vesicles was determined by liquid scintillation counting.
Incubation with AMP provided background activity values for all data points.

[2] = KH (pH 8.0), 37° C., nominal 100.00 μM, IC50 determination
[3] = Transport buffer (pH 7.4) for BSEP VT inhibition assay, 37° C., nominal C0 10.00 μM
[4] = Transport buffer (pH 7.4) for BSEP VT inhibition assay, 37° C., nominal C0 100.00 μM
[5] = Transport buffer with sucrose (pH 7.4) for BCRP and MDR1 VT inhibition assay, 32° C., nominal C0 10.00 μM
[6] = Transport buffer with sucrose (pH 7.4) for BCRP and MDR1 VT inhibition assay, 32° C., nominal C0 100.00 μM
[7] = 0.14 μM nominal, follow-up assay
[8] = 1.24 μM nominal, follow-up assay
[9] = 11.11 μM nominal, follow-up assay
[10] = 33.33 μM nominal, follow-up assay
[11] = 100.00 μM nominal, follow-up assay

Sequence of MDR1 (P08183 whole entry): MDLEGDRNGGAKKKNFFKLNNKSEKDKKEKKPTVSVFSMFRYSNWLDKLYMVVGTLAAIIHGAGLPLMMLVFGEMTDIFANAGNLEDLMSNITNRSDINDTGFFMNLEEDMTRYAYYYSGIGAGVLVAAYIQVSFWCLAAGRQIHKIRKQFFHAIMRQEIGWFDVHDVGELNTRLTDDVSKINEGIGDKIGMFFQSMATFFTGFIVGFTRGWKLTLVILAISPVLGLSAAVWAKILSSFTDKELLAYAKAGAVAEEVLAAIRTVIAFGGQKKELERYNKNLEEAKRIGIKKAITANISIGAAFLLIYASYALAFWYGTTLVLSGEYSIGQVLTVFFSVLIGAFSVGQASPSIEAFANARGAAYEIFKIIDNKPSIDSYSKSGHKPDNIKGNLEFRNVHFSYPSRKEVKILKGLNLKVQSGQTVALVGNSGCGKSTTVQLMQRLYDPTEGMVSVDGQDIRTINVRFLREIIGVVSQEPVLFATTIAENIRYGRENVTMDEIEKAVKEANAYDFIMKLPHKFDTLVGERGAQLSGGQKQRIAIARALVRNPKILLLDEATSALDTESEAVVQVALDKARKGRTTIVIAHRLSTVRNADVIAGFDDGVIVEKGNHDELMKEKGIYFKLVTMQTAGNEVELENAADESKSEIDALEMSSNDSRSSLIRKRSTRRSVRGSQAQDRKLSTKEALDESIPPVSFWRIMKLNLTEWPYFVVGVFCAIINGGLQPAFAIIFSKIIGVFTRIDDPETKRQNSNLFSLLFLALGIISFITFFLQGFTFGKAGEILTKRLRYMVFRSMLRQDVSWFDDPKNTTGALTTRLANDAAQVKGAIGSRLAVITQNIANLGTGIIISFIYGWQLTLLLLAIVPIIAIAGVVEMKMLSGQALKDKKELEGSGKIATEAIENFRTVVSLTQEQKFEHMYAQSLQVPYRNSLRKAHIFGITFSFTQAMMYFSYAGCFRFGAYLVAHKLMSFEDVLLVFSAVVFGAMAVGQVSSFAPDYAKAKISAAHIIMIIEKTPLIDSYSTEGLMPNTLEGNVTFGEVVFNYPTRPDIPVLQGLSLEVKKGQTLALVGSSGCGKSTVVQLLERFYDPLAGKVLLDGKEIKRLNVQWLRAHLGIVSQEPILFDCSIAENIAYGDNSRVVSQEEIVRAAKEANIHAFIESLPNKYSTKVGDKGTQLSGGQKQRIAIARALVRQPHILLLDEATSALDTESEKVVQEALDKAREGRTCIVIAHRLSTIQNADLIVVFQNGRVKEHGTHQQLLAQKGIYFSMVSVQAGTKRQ

## Clc1ccc(C2(OCC3OCCO3)c3ccccc3C3=NCCN32)cc1 (centres unmarked) [Compound I-19]
[1]; KH (pH 8.0), 37° C., nominal 33.33 μM, IC50 determination
  Measured dosing concentrations: 20.72 ± 2.88 µM
[1]; [2]
  Concentration after incubation: 34.06 ± 2.30 µM
  Loss of Compound I-19 during the NSB assay: 25%
  Measured dosing concentrations: 45.32 ± 9.94 µM
[1]; [3]
  Concentration after incubation (tinc): 12.92 ± 0.21 µM
  Loss of Compound I-19 during the NSB assay: −4%
  Measured dosing concentrations ([…] C0): 18.55 ± 0.06 µM
[1]; [4]
  Concentration after incubation (tinc): 122.52 ± 9.60 µM
  Loss of Compound I-19 during the NSB assay: −13%
  Measured dosing concentrations ([…] C0): 162.83 ± 11.51 µM
[1]; [5]
  Concentration after incubation (tinc): 13.10 ± 1.26 µM
  Loss of Compound I-19 during the NSB assay: −11%
  Measured dosing concentrations ([…] C0): 17.68 ± 0.42 µM
[1]; [6]
  Concentration after incubation (tinc): 124.55 ± 5.96 µM
  Loss of Compound I-19 during the NSB assay: −12%
  Measured dosing concentrations ([…] C0): 167.14 ± 11.84 µM
[1]; pH 7.4
  Concentration after incubation: 0.15 ± 0.01 µM
  Loss of Compound I-19 during the NSB assay: 33%
  Measured dosing concentrations: 0.23 ± 0.02 µM
[1]; pH 8
  Concentration after incubation: 0.10 ± 0.01 µM
  Loss of Compound I-19 during the NSB assay: 41%
  Measured dosing concentrations: 0.17 ± 0.02 µM
MDR1; [7]
  ATP-dependent transport: 3,812.00 ± 42.21 cpm
  Relative ATP-dependent transport: 101.02 ± 3.23 % of control
  Relative inhibition: −1%
MDR1; [8]
  ATP-dependent transport: 3,744.33 ± 56.10 cpm
  Relative ATP-dependent transport: 99.23 ± 3.33 % of control
  Relative inhibition: 1%
MDR1; 10.00 μM nominal
  ATP-dependent transport: 1,845.67 ± 148.09 cpm
  Relative ATP-dependent transport: 51.19 ± 4.18 % of control
  Relative inhibition: 49%
MDR1; [9]
  ATP-dependent transport: 2,730.67 ± 83.62 cpm
  Relative ATP-dependent transport: 72.36 ± 3.10 % of control
  Relative inhibition: 28%
MDR1; [10]
  ATP-dependent transport: 1,363.00 ± 46.72 cpm
  Relative ATP-dependent transport: 36.12 ± 1.64 % of control
  Relative inhibition: 64%
MDR1; 100.00 μM nominal
  ATP-dependent transport: 2.84 ± 21.41 cpm
  Relative ATP-dependent transport: 7.89 ± 0.61 % of control
  Relative inhibition: 92%
MDR1; [11]
  ATP-dependent transport: 407.00 ± 29.39 cpm
  Relative ATP-dependent transport: 10.79 ± 0.84 % of control
  Relative inhibition: 89%
MDR1; 2-concentration assay, up to 100 μM (Compound A up to 50 μM)
  maximum inhibition of MDR1-mediated NMQ accumulation: 92%
MDR1; MDR1, inside-out membrane vesicles, NMQ (1 μM), NIO: No inhibition observed
  Maximum % inhibition: 89%
MDR1; follow-up assay
  maximum inhibition of MDR1-mediated NMQ accumulation: 89%
MDR1; follow-up assay, bottom constrained to 0
  IC50: 21 µM
